Test results reported in patent US5440033A, “Indolyl-, pyrrolyl- and pyrazolyl substituted benzazepines” (Schering Corporation, priority 1993, dated 1995).
Where two headings read alike, the source gives them in different places.

How the values were obtained:
[1] = molecular target: T1, D-2 receptor (Rattus norvegicus, UniProt P61169); experiment: Competitive inhibition assay, displacement of 3H-spiperone (D2), rat striatal tissue; type: binding, rat (male Sprague-Dawley); conditions: 3H-spiperone 0.2 nM, rat striatum; for Ki: pH 7.4, 37° C., 15 minutes
T1 construct: Striatal tissue was excised, pooled, and homogenized; from tissue; host or cells: rat brain striatum (male Sprague-Dawley)
Description: (§1) A methodology for characterization of binding and an interpretation of the data are described by Billard et al., Life Sciences 35, 1885 (1984) in which the binding of the benzazepine (R)-(+)-8-chloro-2,3,4,5-tetrahydro-3-methyl-5-phenyl-1H-3-benzazepin-7-olhemimaleate (SCH 23390) to the dopamine D-1 receptor is characterized.
(§2) Tritiated SCH 23390 and tritiated spiperone (a potent D-2 ligand) were obtained as described in the Billard et al. reference supra and serially diluted in 0.05M Tris buffer, pH 7.4, as required. A compound of the invention is diluted in 0.05M Tris buffer, pH 7.4, as required.
(§3) Male Sprague-Dawley rats (200 to 250 g) from Charles River Breeding Laboratories, Mass. were used to obtain brain tissue. The rats were humanely sacrificed and their brains removed and placed on ice. Striatal tissue was excised, pooled, and homogenized (Brinkman Polytron, 10 seconds) in 100 volumes (w/v) of ice cold 50 mM Tris buffer, pH 7.4 (at 25° C.). The homogenate was centrifuged at 20,000×g for 10 minutes. The resultant pellet was rehomogenized in Tris buffer and centrifuged again. The final pellet was resuspended in 50 mM Tris buffer pH 7.4 containing 120 mM NaCl, […], 1 mM CaCl2, and 1 mM MgCl2.
(§4) Polypropylene incubation tubes received 100 μl of the individual test compounds at various concentrations dissolved or suspended in 0.05M Tris, pH 7.4 containing 4 mg/ml methylcellulose, 100 μl of a solution of ^3 H-SCH 23390 in Tris buffer (final reaction mixture concentration=0.3 nM) or 100 μl of a solution of 3H-spiperone in Tris buffer (final concentration=0.2 nM) and 800 μl of tissue suspension (ca. 3 mg/assay). Tubes were incubated at 37° C. for 15 minutes and rapidly vacuum filtered through Whatman GM/B filters and rinsed 4 times with 4 ml of ice cold 50 mM Tris buffer, pH 7.4. The filters were transferred to scintillation vials, equilibrated with 10 ml of scintillant (Scintosol, Isolab, Inc.) for 16 hours at 25° C. and the radioactivity determined in a liquid scintillation counter. Ki values were determined as described by Billard et al. using the relationship Ki =IC50 /(1+([L]/KD)) wherein IC50 =concentration of test drug necessary to displace 50% of specifically bound ^3 H-Sch 23390, [L]=concentration of radioligand used in the assay, and KD =dissociation constant.

[2] = Conditioned avoidance suppression in rats (CAR); type: in vivo; conditions: rat; for minimal effective dose: read-out: Rat CAR (minimal effective dose, MED)
Experimental: N.Y. Acad. Sci. 66, 740 (1957). A series of experiments was carried out to assess the ability of the compounds of this invention to suppress the conditioned avoidance response (CAR) in rats.
Rats were required to jump onto a platform located 6.75 inches (17.15 cm) above the grid floor of an experimental chamber in response to a 5-second tone to avoid a 10-second foot shock (0.6 ma). Each experimental session consisted of 20 such trials presented at 30-second intervals. A correct CAR is scored whenever the rat jumps onto the platform during the tone (prior to foot shock). An escape response is scored when the rat jumps onto the platform during a shock. A response failure is defined as the lack of an escape response during the 10-second shock period.
Groups of 6-8 rats were trained in two consecutive days (total of 40 trials). Rats that reached criterion on day 2 (correct CARs on 16 or more of the 20 trials) were treated with either a test drug or vehicle on day 3. Suppression of CAR was analyzed statistically using Student's t-test comparing the performances of drug-treated to vehicle-treated rats.

[3] = Conditioned avoidance response, monkey (parenthesised entries in the Rat CAR column); type: in vivo
[4] = molecular target: T2, dopamine D-1 receptor (Rattus norvegicus, UniProt P18901); experiment: Competitive inhibition assay, displacement of 3H-SCH 23390 (D1), rat striatal tissue; type: binding, rat (male Sprague-Dawley); conditions: 3H-SCH 23390 0.3 nM, rat striatum, pH 7.4, 37° C., 15 minutes
T2 construct: Striatal tissue was excised, pooled, and homogenized; from tissue; host or cells: rat brain striatum (male Sprague-Dawley)
Description: as §1, §2, §3, §4

[5] = @ 1 h, lowest dose tested that significantly (P<0.05) reduced avoidance responding

T2 sequence (P18901 whole entry): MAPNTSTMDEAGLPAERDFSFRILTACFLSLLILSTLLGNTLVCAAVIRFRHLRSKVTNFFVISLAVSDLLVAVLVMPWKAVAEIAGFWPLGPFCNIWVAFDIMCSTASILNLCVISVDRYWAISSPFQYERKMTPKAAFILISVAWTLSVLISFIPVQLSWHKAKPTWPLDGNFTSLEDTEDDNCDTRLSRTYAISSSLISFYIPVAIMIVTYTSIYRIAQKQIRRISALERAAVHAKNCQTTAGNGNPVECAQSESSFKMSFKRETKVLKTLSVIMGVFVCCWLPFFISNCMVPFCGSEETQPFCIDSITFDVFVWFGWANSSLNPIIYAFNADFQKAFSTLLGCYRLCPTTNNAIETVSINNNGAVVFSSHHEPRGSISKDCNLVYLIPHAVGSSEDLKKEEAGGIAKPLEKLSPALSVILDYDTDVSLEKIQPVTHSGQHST
T1 sequence (P61169 whole entry): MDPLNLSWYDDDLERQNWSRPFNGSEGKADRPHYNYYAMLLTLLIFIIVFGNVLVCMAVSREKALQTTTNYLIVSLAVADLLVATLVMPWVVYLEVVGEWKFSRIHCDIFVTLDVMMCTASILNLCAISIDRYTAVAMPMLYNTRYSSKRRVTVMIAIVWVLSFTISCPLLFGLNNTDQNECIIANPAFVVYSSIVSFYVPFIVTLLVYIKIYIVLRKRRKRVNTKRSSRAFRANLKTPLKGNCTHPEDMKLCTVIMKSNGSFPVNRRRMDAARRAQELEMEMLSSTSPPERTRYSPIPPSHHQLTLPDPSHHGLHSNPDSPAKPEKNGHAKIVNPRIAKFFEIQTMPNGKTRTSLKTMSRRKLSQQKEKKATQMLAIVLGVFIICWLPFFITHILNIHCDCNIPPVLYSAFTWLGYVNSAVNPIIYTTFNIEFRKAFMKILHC

SMILES: Cc1cc(C2CN(C)CCc3cc(Cl)c(O)cc32)c(C)[nH]1 (racemic) [(±)C]
- Ki [1]: 2450 nM
- minimal effective dose [2, 5]: 10 mg/kg
- minimal effective dose ([2]; @ 6 h): 50 mg/kg
- CAR, monkey ([3]; po @ 6 h): 1.5 mpk
- Ki [4]: 2.8 nM

SMILES: CN1CCc2cc(Cl)c(O)cc2C(c2ccn(C)c2)C1 (centres unmarked) [H]
- Ki [1]: 177 nM
- Ki [4]: 2.2 nM

SMILES: CN1CCc2cc(Cl)c(O)cc2C(c2cccn2C)C1 (centres unmarked) [F]
- Ki [1]: 10000 nM
- Ki [4]: 41 nM

SMILES: Cc1cc(C2CN(C)CCc3cc(Cl)c(O)cc32)c(C)[nH]1 (single isomer, unassigned; (+)) [(+)D]
- Ki [1]: 590 nM
- tremors ([2]; 30 po): tremors at 30 po
- minimal effective dose [2, 5]: 10 mg/kg
- Ki [4]: 0.54 nM

SMILES: Cc1cc2c(cc1O)C(n1ccc3ccccc31)CN(C)CC2 (centres unmarked) [B]
- IC50 ([1]; printed as IC50 in the Ki column): > 10000 nM
- Ki [4]: 607 nM

SMILES: Cc1cc(C2CN(C)CCc3cc(Cl)c(O)cc32)c(C)n1C (centres unmarked) [G]
- Ki [1]: 383 nM
- minimal effective dose [2, 5]: 10 mg/kg
- CAR, monkey ([3]; @ 4 h): 5 mpk
- Ki [4]: 2.8 nM

SMILES: CN1CCc2cc(Cl)c(O)cc2C(n2cccn2)C1 (centres unmarked) [Compound I]
- Ki [1]: > 10000 nM
- Ki [4]: 12 nM

SMILES: Cc1cc(C2CN(C)CCc3cc(Cl)c(O)cc32)c(C)[nH]1 (single isomer, unassigned; (-)) [(-)E]
- Ki [1]: 613 nM
- Ki [4]: 41 nM

SMILES: CN1CCc2cc(Cl)c(O)cc2C(c2c[nH]c3ccccc23)C1 (centres unmarked) [K]
- Ki [1]: > 10000 nM
- Ki [4]: 55.2 nM

SMILES: CN1CCc2cc(Cl)c(O)cc2C(n2ccc3ccccc32)C1 (centres unmarked) [A]
- Ki [1]: > 10000 nM
- Ki [4]: 26 nM

SMILES: Cc1[nH]c2ccccc2c1C1CN(C)CCc2cc(Cl)c(O)cc21 (centres unmarked) [J]
- Ki [1]: > 10000 nM
- Ki [4]: 127 nM
